Assay results reported in patent publication US5843889A, “Glycopeptide antibiotic derivatives” (Eli Lilly and Company, priority 1997, dated 1998).
≈ marks a conversion by molar mass, not a printed value.

Assays:
Assay in all cases: MIC, standard broth micro-dilution assay
Assay type in all cases: cell-based
Entercoccus faecalis 276 = test system: Entercoccus faecalis 276
Method: (§1) The formula I compounds have in vitro and in vivo activity against Gram-positive pathogenic bacteria. The MIC's were determined using a standard broth micro-dilution assay.

[1] = test system: Entercoccus faecalis 2041
Method: as §1

[2] = test system: Entercoccus gallinarum 245
Method: as §1

Compound | MIC (Entercoccus faecalis 276) [µg/mL] | MIC [1] [µg/mL] | MIC [2] [µg/mL]
CNC(CC(C)C)C(=O)NC1C(=O)NC(CC(N)=O)C(=O)NC2C(=O)NC3C(=O)NC(C(=O)NC(C(=O)O)c4cc(O)cc(O)c4-c4cc3ccc4O)C(OC3CC(C)(N)C(O)C(C)O3)c3ccc(c(Cl)c3)Oc3cc2cc(c3OC2OC(CO)C(O)C(O)C2OC2CC(C)(NCc3cccc(OCC4CCCCC4)c3)C(O)C(C)O2)Oc2ccc(cc2Cl)C1O (stereo not drawn) [Compound 123, 3-[cyclohexylmethoxy]benzyl] | 0.25 (≈ 0.139 µM) | ≤ 0.06 | 1 (≈ 0.557 µM)
CNC(CC(C)C)C(=O)NC1C(=O)NC(CC(N)=O)C(=O)NC2C(=O)NC3C(=O)NC(C(=O)NC(C(=O)O)c4cc(O)cc(O)c4-c4cc3ccc4O)C(OC3CC(C)(N)C(O)C(C)O3)c3ccc(c(Cl)c3)Oc3cc2cc(c3OC2OC(CO)C(O)C(O)C2OC2CC(C)(NCc3ccc(C#Cc4ccccc4)cc3)C(O)C(C)O2)Oc2ccc(cc2Cl)C1O (stereo not drawn) [Compound 79, 4-phenylethynylbenzyl] | ≤ 0.06 | ≤ 0.06 | ≤ 0.06
CCOC(c1ccccc1)c1ccc(CNC2(C)CC(OC3C(Oc4c5cc6cc4Oc4ccc(cc4Cl)C(OC4CC(C)(N)C(O)C(C)O4)C4NC(=O)C(NC(=O)C6NC(=O)C(CC(N)=O)NC(=O)C(NC(=O)C(CC(C)C)NC)C(O)c6ccc(c(Cl)c6)O5)c5ccc(O)c(c5)-c5c(O)cc(O)cc5C(C(=O)O)NC4=O)OC(CO)C(O)C3O)OC(C)C2O)cc1 (stereo not drawn) [Compound 126] | 1 (≈ 0.55 µM) | ≤ 0.06 | 2 (≈ 1.1 µM)
CNC(CC(C)C)C(=O)NC1C(=O)NC(CC(N)=O)C(=O)NC2C(=O)NC3C(=O)NC(C(=O)NC(C(=O)O)c4cc(O)cc(O)c4-c4cc3ccc4O)C(OC3CC(C)(N)C(O)C(C)O3)c3ccc(c(Cl)c3)Oc3cc2cc(c3OC2OC(CO)C(O)C(O)C2OC2CC(C)(NCCCCCCCCBr)C(O)C(C)O2)Oc2ccc(cc2Cl)C1O (stereo not drawn) [Compound 198, 8-bromooctyl] | 0.25 (≈ 0.14 µM) | ≤ 0.06 | 1 (≈ 0.561 µM)
CNC(CC(C)C)C(=O)NC1C(=O)NC(CC(N)=O)C(=O)NC2C(=O)NC3C(=O)NC(C(=O)NC(C(=O)O)c4cc(O)cc(O)c4-c4cc3ccc4O)C(OC3CC(C)(N)C(O)C(C)O3)c3ccc(c(Cl)c3)Oc3cc2cc(c3OC2OC(CO)C(O)C(O)C2OC2CC(C)(NCc3ccc4cc(OC)ccc4c3)C(O)C(C)O2)Oc2ccc(cc2Cl)C1O (stereo not drawn) [Compound 65, 6-methoxy-2-naphthylmethyl] | 0.5 (≈ 0.284 µM) | ≤ 0.06 | 4 (≈ 2.27 µM)
CNC(CC(C)C)C(=O)NC1C(=O)NC(CC(N)=O)C(=O)NC2C(=O)NC3C(=O)NC(C(=O)NC(C(=O)O)c4cc(O)cc(O)c4-c4cc3ccc4O)C(OC3CC(C)(N)C(O)C(C)O3)c3ccc(c(Cl)c3)Oc3cc2cc(c3OC2OC(CO)C(O)C(O)C2OC2CC(C)(NCCc3ccc(OCc4ccccc4)cc3)C(O)C(C)O2)Oc2ccc(cc2Cl)C1O (stereo not drawn) [Compound 68, 4-benzyloxyphenethyl] | ≤ 0.06 | ≤ 0.06 | 4 (≈ 2.22 µM)
CN[C@H](CC(C)C)C(=O)N[C@H]1C(=O)N[C@@H](CC(N)=O)C(=O)N[C@H]2C(=O)N[C@H]3C(=O)N[C@H](C(=O)N[C@H](C(=O)O)c4cc(O)cc(O)c4-c4cc3ccc4O)[C@H](O[C@H]3C[C@](C)(N)[C@@H](O)[C@H](C)O3)c3ccc(c(Cl)c3)Oc3cc2cc(c3O[C@@H]2O[C@H](CO)[C@@H](O)[C@H](O)[C@H]2O[C@H]2C[C@](C)(NCc3cccc(-c4ccccc4)c3)[C@@H](O)[C@H](C)O2)Oc2ccc(cc2Cl)[C@H]1O [Compound 91, 3-phenylbenzyl] | ≤ 0.06 | ≤ 0.06 | 2 (≈ 1.14 µM)
CCCCCCCCOc1ccc(-c2ccc(CNC3(C)CC(OC4C(Oc5c6cc7cc5Oc5ccc(cc5Cl)C(OC5CC(C)(N)C(O)C(C)O5)C5NC(=O)C(NC(=O)C7NC(=O)C(CC(N)=O)NC(=O)C(NC(=O)C(CC(C)C)NC)C(O)c7ccc(c(Cl)c7)O6)c6ccc(O)c(c6)-c6c(O)cc(O)cc6C(C(=O)O)NC5=O)OC(CO)C(O)C4O)OC(C)C3O)cc2)cc1 (stereo not drawn) [Compound 23, 4-[4-octyloxyphenyl]benzyl] | 32 (≈ 17 µM) | 32 (≈ 17 µM) | 8 (≈ 4.24 µM)
4-[3-trifluoromethylphenoxy]-3-nitrobenzyl [Compound 114] | 1 | 0.25 | 2
CNC(CC(C)C)C(=O)NC1C(=O)NC(CC(N)=O)C(=O)NC2C(=O)NC3C(=O)NC(C(=O)NC(C(=O)O)c4cc(O)cc(O)c4-c4cc3ccc4O)C(OC3CC(C)(N)C(O)C(C)O3)c3ccc(c(Cl)c3)Oc3cc2cc(c3OC2OC(CO)C(O)C(O)C2OC2CC(C)(NCc3ccc(-c4ccc(F)cc4)cc3)C(O)C(C)O2)Oc2ccc(cc2Cl)C1O (stereo not drawn) [Compound 211, 4-[4-flurophenyl]benzyl] | ≤ 0.06 | ≤ 0.06 | ≤ 0.06
CNC(CC(C)C)C(=O)NC1C(=O)NC(CC(N)=O)C(=O)NC2C(=O)NC3C(=O)NC(C(=O)NC(C(=O)O)c4cc(O)cc(O)c4-c4cc3ccc4O)C(OC3CC(C)(N)C(O)C(C)O3)c3ccc(c(Cl)c3)Oc3cc2cc(c3OC2OC(CO)C(O)C(O)C2OC2CC(C)(NCc3ccc(-c4ccccc4[N+](=O)[O-])c([N+](=O)[O-])c3)C(O)C(C)O2)Oc2ccc(cc2Cl)C1O (stereo not drawn) [Compound 213, 3-nitro-4-[2-nitrophenyl]benzyl] | ≤ 0.06 | ≤ 0.06 | 2 (≈ 1.08 µM)
CCCCCCCCCCC#CCNC1(C)CC(OC2C(Oc3c4cc5cc3Oc3ccc(cc3Cl)C(OC3CC(C)(N)C(O)C(C)O3)C3NC(=O)C(NC(=O)C5NC(=O)C(CC(N)=O)NC(=O)C(NC(=O)C(CC(C)C)NC)C(O)c5ccc(c(Cl)c5)O4)c4ccc(O)c(c4)-c4c(O)cc(O)cc4C(C(=O)O)NC3=O)OC(CO)C(O)C2O)OC(C)C1O (stereo not drawn) [Compound 191, 2-tridecynyl] | 4 (≈ 2.26 µM) | 1 (≈ 0.565 µM) | 8 (≈ 4.52 µM)
CNC(CC(C)C)C(=O)NC1C(=O)NC(CC(N)=O)C(=O)NC2C(=O)NC3C(=O)NC(C(=O)NC(C(=O)O)c4cc(O)cc(O)c4-c4cc3ccc4O)C(OC3CC(C)(N)C(O)C(C)O3)c3ccc(c(Cl)c3)Oc3cc2cc(c3OC2OC(CO)C(O)C(O)C2OC2CC(C)(NCc3ccc(OC(=O)c4ccccc4)cc3)C(O)C(C)O2)Oc2ccc(cc2Cl)C1O (stereo not drawn) [Compound 150, 4-benzoyloxybenzyl] | 1 (≈ 0.555 µM) | ≤ 0.06 | 2 (≈ 1.11 µM)
CNC(CC(C)C)C(=O)NC1C(=O)NC(CC(N)=O)C(=O)NC2C(=O)NC3C(=O)NC(C(=O)NC(C(=O)O)c4cc(O)cc(O)c4-c4cc3ccc4O)C(OC3CC(C)(N)C(O)C(C)O3)c3ccc(c(Cl)c3)Oc3cc2cc(c3OC2OC(CO)C(O)C(O)C2OC2CC(C)(NCc3ccc(-c4ccc(OC)cc4)s3)C(O)C(C)O2)Oc2ccc(cc2Cl)C1O (stereo not drawn) [Compound 71, 5-[4-methoxyphenyl]-2-thienylinethyl] | 2 (≈ 1.11 µM) | 1 (≈ 0.557 µM) | 8 (≈ 4.46 µM)
CNC(CC(C)C)C(=O)NC1C(=O)NC(CC(N)=O)C(=O)NC2C(=O)NC3C(=O)NC(C(=O)NC(C(=O)O)c4cc(O)cc(O)c4-c4cc3ccc4O)C(OC3CC(C)(N)C(O)C(C)O3)c3ccc(c(Cl)c3)Oc3cc2cc(c3OC2OC(CO)C(O)C(O)C2OC2CC(C)(NCCc3ccc4ccccc4c3)C(O)C(C)O2)Oc2ccc(cc2Cl)C1O (stereo not drawn) [Compound 179, 2-[2-napthyl]ethyl] | ≤ 0.06 | ≤ 0.06 | 1 (≈ 0.573 µM)
CNC(CC(C)C)C(=O)NC1C(=O)NC(CC(N)=O)C(=O)NC2C(=O)NC3C(=O)NC(C(=O)NC(C(=O)O)c4cc(O)cc(O)c4-c4cc3ccc4O)C(OC3CC(C)(N)C(O)C(C)O3)c3ccc(c(Cl)c3)Oc3cc2cc(c3OC2OC(CO)C(O)C(O)C2OC2CC(C)(NCc3cccc4ccccc34)C(O)C(C)O2)Oc2ccc(cc2Cl)C1O (stereo not drawn) [Compound 3, 1-naphthylmethyl] | ≤ 0.06 | ≤ 0.06 | ≤ 0.06
CCCCCC#Cc1ccc(CNC2(C)CC(OC3C(Oc4c5cc6cc4Oc4ccc(cc4Cl)C(OC4CC(C)(N)C(O)C(C)O4)C4NC(=O)C(NC(=O)C6NC(=O)C(CC(N)=O)NC(=O)C(NC(=O)C(CC(C)C)NC)C(O)c6ccc(c(Cl)c6)O5)c5ccc(O)c(c5)-c5c(O)cc(O)cc5C(C(=O)O)NC4=O)OC(CO)C(O)C3O)OC(C)C2O)cc1 (stereo not drawn) [Compound 227, 4-[1-heptynyl]benzyl] | 0.5 (≈ 0.281 µM) | 0.25 (≈ 0.141 µM) | 4 (≈ 2.25 µM)
CNC(CC(C)C)C(=O)NC1C(=O)NC(CC(N)=O)C(=O)NC2C(=O)NC3C(=O)NC(C(=O)NC(C(=O)O)c4cc(O)cc(O)c4-c4cc3ccc4O)C(OC3CC(C)(N)C(O)C(C)O3)c3ccc(c(Cl)c3)Oc3cc2cc(c3OC2OC(CO)C(O)C(O)C2OC2CC(C)(NCc3cccc(OC4CCCCC4)c3)C(O)C(C)O2)Oc2ccc(cc2Cl)C1O (stereo not drawn) [Compound 153] | 0.5 (≈ 0.281 µM) | ≤ 0.06 | 1 (≈ 0.562 µM)
CNC(CC(C)C)C(=O)NC1C(=O)NC(CC(N)=O)C(=O)NC2C(=O)NC3C(=O)NC(C(=O)NC(C(=O)O)c4cc(O)cc(O)c4-c4cc3ccc4O)C(OC3CC(C)(N)C(O)C(C)O3)c3ccc(c(Cl)c3)Oc3cc2cc(c3OC2OC(CO)C(O)C(O)C2OC2CC(C)(NCc3ccc(-c4ccccc4)s3)C(O)C(C)O2)Oc2ccc(cc2Cl)C1O (stereo not drawn) [Compound 67, 5-phenyl-2-thienylmethyl] | ≤ 0.06 | ≤ 0.06 | 2 (≈ 1.13 µM)
CNC(CC(C)C)C(=O)NC1C(=O)NC(CC(N)=O)C(=O)NC2C(=O)NC3C(=O)NC(C(=O)NC(C(=O)O)c4cc(O)cc(O)c4-c4cc3ccc4O)C(O)c3ccc(c(Cl)c3)Oc3cc2cc(c3OC2OC(CO)C(O)C(O)C2OC2CC(C)(NCc3cccc4ccccc34)C(O)C(C)O2)Oc2ccc(cc2Cl)C1O (stereo not drawn) [Compound 180, 1-napthylmethyl] | 2 (≈ 1.26 µM) | 0.25 (≈ 0.157 µM) | 0.25 (≈ 0.157 µM)
